## COC(=O)NCCCCCCNC(=O)OC
In dimethyl carbonate, 298.15 K
  solubility (mole fraction): 0.00596
In dimethyl carbonate, 300.15 K
  solubility (mole fraction): 0.00689
In dimethyl carbonate, 303.15 K
  solubility (mole fraction): 0.00839
In dimethyl carbonate, 308.15 K
  solubility (mole fraction): 0.0117
In dimethyl carbonate, 313.15 K
  solubility (mole fraction): 0.0161
In dimethyl carbonate, 318.15 K
  solubility (mole fraction): 0.0207
In dimethyl carbonate, 323.15 K
  solubility (mole fraction): 0.026
In dimethyl carbonate, 328.15 K
  solubility (mole fraction): 0.0338
In dimethyl carbonate, 333.15 K
  solubility (mole fraction): 0.042
In ethanol, 298.15 K
  solubility (mole fraction): 0.0155
In ethanol, 300.15 K
  solubility (mole fraction): 0.0179
In ethanol, 303.15 K
  solubility (mole fraction): 0.0205
In ethanol, 308.15 K
  solubility (mole fraction): 0.0279
In ethanol, 313.15 K
  solubility (mole fraction): 0.0355
In ethanol, 318.15 K
  solubility (mole fraction): 0.0463
In ethanol, 323.15 K
  solubility (mole fraction): 0.0625
In ethanol, 328.15 K
  solubility (mole fraction): 0.0769
In ethanol, 333.15 K
  solubility (mole fraction): 0.0987
In ethyl acetate, 298.15 K
  solubility (mole fraction): 0.00814
In ethyl acetate, 300.15 K
  solubility (mole fraction): 0.00976
In ethyl acetate, 303.15 K
  solubility (mole fraction): 0.0124
In ethyl acetate, 308.15 K
  solubility (mole fraction): 0.0176
In ethyl acetate, 313.15 K
  solubility (mole fraction): 0.0233
In ethyl acetate, 318.15 K
  solubility (mole fraction): 0.029
In ethyl acetate, 323.15 K
  solubility (mole fraction): 0.0369
In ethyl acetate, 328.15 K
  solubility (mole fraction): 0.0445
In ethyl acetate, 333.15 K
  solubility (mole fraction): 0.0536
In toluene, 298.15 K
  solubility (mole fraction): 0.00731
In toluene, 300.15 K
  solubility (mole fraction): 0.00912
In toluene, 303.15 K
  solubility (mole fraction): 0.0111
In toluene, 308.15 K
  solubility (mole fraction): 0.0167
In toluene, 313.15 K
  solubility (mole fraction): 0.0232
In toluene, 318.15 K
  solubility (mole fraction): 0.0353
In toluene, 323.15 K
  solubility (mole fraction): 0.0462
In toluene, 328.15 K
  solubility (mole fraction): 0.0614
In toluene, 333.15 K
  solubility (mole fraction): 0.0824
In water, 298.15 K
  solubility (mole fraction): 6.21e-05
In water, 300.15 K
  solubility (mole fraction): 6.92e-05
In water, 303.15 K
  solubility (mole fraction): 7.91e-05
In water, 308.15 K
  solubility (mole fraction): 0.000106
In water, 313.15 K
  solubility (mole fraction): 0.000146
In water, 318.15 K
  solubility (mole fraction): 0.000185
In water, 323.15 K
  solubility (mole fraction): 0.00025
In water, 328.15 K
  solubility (mole fraction): 0.000339
In water, 333.15 K
  solubility (mole fraction): 0.000439

— BigSolDB 2.1
